Read-outs that look alike come from different tables or passages of the source.

The test system of series [1] is A-549 (human lung carcinoma) cells. Kind of series: Cytotoxicity by microscopic morphological changes in uninfected toxicity control wells.
Series [2] deals with Rhinovirus (RV) type 2, strain GPH. Kind of series: Cytopathogenic effect (CPE) inhibition assay. Particulars: for EC50: A549 cells. On the technique in general: Damage to the host cells serves as the signal in cytopathic effect assays.
Method: Cells: A-549 (human lung carcinoma) cells were obtained from the American Type Culture Collection (ATCC, Rockville, Md.). They were grown in Dulbecco's Minimum Essential Medium (DMEM, Gibco, Gaithersburg, Md.) supplemented with 10% fetal bovine serum (FBS, HyClone Laboratories, Logan, Utah). When the cells were infected with virus, the test medium contained 2% FBS with 0.1% NaHCO3 and 50 μg gentamicin/ml.
Virus: Rhinovirus (RV) type 2, strain GPH was obtained from the ATCC. The virus was passed in cells and a pool prepared, ampuled, and frozen at −80° C. An aliquot of the frozen virus was titrated in A-549 cells prior to use in the following experiments.
A portion of the original solution was then diluted 1:3.95 in DMEM to provide a final concentration of 632 μM.
In both treatment methods, cells were plated in 96-well flat-bottomed tissue culture microplates (Corning Glass Works, Corning, N.Y.) at 5×10^4 cells/well in DMEM growth medium, and incubated overnight at 37° C. to establish cell monolayers in each well. […] Approximately 5-10 minutes later, four wells at each drug concentration were exposed to 0.1 ml of test medium with virus, with two additional wells exposed to 0.1 ml of sterile medium only, the latter to serve as toxicity controls. A group of 6 infected wells received no test compound to serve as virus controls, and 6 additional wells received sterile medium only as normal cell controls.
In the first treatment method, the test compound was added to the cells immediately prior to virus exposure and remained on the cells until viral cytopathogenic effect (CPE) was determined. In the second treatment method, fresh test compound (diluted in medium) was added to the cells daily, after removing the previous medium, until such time as the CPE was measured.
The CPE from each well was scored from 0 (normal cells) to 4 (maximal, 100%, CPE). Morphological changes due to cytotoxicity were determined microscopically; this was graded as T (100% toxicity characterized by complete cell sloughing from plate), PVH (80% cytotoxicity), PH (60% cytotoxicity), P (40% cytotoxicity), PSI (20% cytotoxicity) and 0 (normal cells). Fifty percent effective (virus-inhibitory) doses (ED50) and 50% cytotoxic doses (CD50) were calculated by regression analysis for the CPE inhibition experiment.
A further series relates to Rhinovirus Type 2. Briefly: Rhinovirus yield reduction assay. The conditions noted are these: for ED50 (virus yield): second experiment.
[3] abbreviates: drug present without medium change.

Method for Rhinovirus Type 2: After the second experiment, the microplate was frozen at −70° C., then thawed and the medium removed from the virus-infected wells and individually assayed for virus titer by adding 0.2 ml of serial 10-fold dilutions to a fresh monolayer of cells. The viral CPE, read 6 days later, was used as an infectivity endpoint.

“2′,3′-cyclophosphateadenylyl(2′,5′)adenylyl-(2′,5′)adenosine [Papirine AIII]”: in series [1] (both experiments, A549 cells), the cytotoxicity observed result was “no cytotoxicity was observed”. In addition, the “inhibition of viral CPE” value in series [2] (both methods, both experiments, compared with ribavirin) is listed as “significant inhibition of viral CPE was seen that exceeded the activity of the known positive inhibitor, ribavirin”. For the same compound, the EC50 in series [2] (read-out: ED50, Expt. 1, 5 days' incubation at 37° C., drug changed every 24 hours) stood at 24 µM; in series [2] (read-out: ED50, Expt. 1, 5 days' incubation at 37° C., drug present without medium change), 25 µM; in series [2] (read-out: ED50, Expt. 2, 3 days' incubation at 37° C., drug changed every 24 hours), 63 µM; in series [2] (read-out: ED50, Expt. 2, 3 days' incubation at 37° C., drug present without medium change) it was 63 µM. Further, in the series with Rhinovirus Type 2 (overall conclusion from CPE and virus yield results), the “conclusion on inhibition of type 2 rhinovirus” value is “significant inhibitor of type 2 rhinovirus”. For the same compound, the “ED90 concentration (virus yield)” value with Rhinovirus Type 2 (same whether compound left on the cells or freshly added daily) was determined as 8 µM. The “ED50 (virus yield)” value in the series with Rhinovirus Type 2 (drug changed every 24 hours) and in the series with Rhinovirus Type 2 (setting [3]) was 8 µM each time.

In the case of `NC(=O)c1ncn([C@@H]2O[C@H](CO)[C@@H](O)[C@H]2O)n1` [Ribavirin], the CD50 in series [1] (Expt. 1, 5 days' incubation at 37° C., drug changed every 24 hours, A549 cells) turned out to be 2290 µM; in series [1] (Expt. 1, 5 days' incubation at 37° C., drug present without medium change, A549 cells), 2290 µM; in series [1] (Expt. 2, 3 days' incubation at 37° C., drug changed every 24 hours, A549 cells) it was 740 µM; in series [1] (Expt. 2, 3 days' incubation at 37° C., drug present without medium change, A549 cells), 740 µM; in series [1] (Table 2, second experiment, drug changed every 24 hours), 740 µM; in series [1] (Table 2, second experiment, drug present without medium change) it was 740 µM. Also, the EC50 came out at 410 µM in series [2] (Enterovirus, A549, 72 h, read-out: ED50, Expt. 2, 3 days' incubation at 37° C., drug present without medium change); 610 µM in series [2] (Enterovirus, A549, 120 h, read-out: ED50, Expt. 1, 5 days' incubation at 37° C., drug present without medium change); 1190 µM in series [2] (Enterovirus, A549, read-out: ED50, Expt. 1, 5 days' incubation at 37° C., drug changed every 24 hours); 186 µM in series [2] (Enterovirus, A549, read-out: ED50, Expt. 2, 3 days' incubation at 37° C., drug changed every 24 hours). Further, the “ED50 (virus yield)” value came out at 102 µM in the series on Rhinovirus Type 2 (drug changed every 24 hours) and 53 µM in the series on Rhinovirus Type 2 (setting [3]).

The record behind these values is patent US6468991B1, “Method of treating rhinoviral infections” (Cyclis Pharmaceuticals, Inc., priority 1997, dated 2002).
